Patent publication US20110144125A1, “Anti-Arrhythmia Agents, Methods of Their Use, Methods of Their Identification and Kits Therefore” (THE UAB RESEARCH FOUNDATION, priority 2008, published 2011)
Where “and” joins values, the source holds several entries; their conditions need not be identical. Equal values may be shown once. Entries after “also recorded” stand apart in the source; their conditions may differ. Read-outs that look alike come from different tables or passages of the source.

How the values were obtained:
rat left atria [1] = experiment: Left atrial force of contraction / post-rest potentiation maximum force
Protocol: Left atria were isolated from male Sprague-Dawley rats (325 to 400 g) under IP pentobarbital anesthesia (0.1 g/kg). Isolated left atria were superfused at 30° C. in Krebs-Henseleit (KH) buffer of the following mM composition: NaCl, 118; NaHCO3, 27; KCl, 4.8; MgSO4, 1.2; KH2PO4, 1.0; CaCl2, 1.8; and glucose, 11.1. Nearly isometric left atrial forces of contraction were measured as described.
The initial potentiated beat following prolonged rest (i.e., the PRP maximum force of contraction) reflects activator calcium available for SR release. The PRP response was used to obtain an indirect measure of left atrial SR calcium under our conditions.
Left atria (n=6) were superfused in KH, paced at 0.1 Hz, and subjected to PRP. Superfusion proceeded for another 35 min, and a second PRP was performed. These 2 forces were compared to assure the mechanical stability of our preparations.
One group (n=8) was superfused in KH, paced at 0.1 Hz, and their maximum force of contraction was measured. These atria were washed with KH containing 82 mM sodium, and a second PRP was performed 23 min later.
A second group (n=8) was paced at 0.1 Hz in KH and subjected to PRP. They were exposed to 22 μM 2-APB and, after the appearance of SMA, were washed with KH containing 22 μM 2-APB and 82 mM sodium. Superfusion continued for 23 min and a second PRP was performed.
Control 0.1 Hz paced atria (n=8) were subjected to PRP and exposed to 400 μM DIDS, and a second PRP was performed 23 min later.
A group of atria (n=8) were paced at 0.1 Hz in KH and subjected to PRP. They were exposed to 22 μM 2-APB, 400 μM DIDS was added to the superfusate after the appearance of SMA, and a second PRP was performed 23 min later.
(§1) Left atria (n=8 per group) were paced at 3 Hz and (i) titrated with 0 to 30 nM isoproterenol (Ahlquist, 1970) or (ii) exposed to 3 μM forskolin (Laurenza et al., 1980). Left atrial force and frequency of contraction, the time to peak tension and relaxation times were recorded after a 3-5 min exposure to forskolin or to any concentration of isoproterenol. The 3 Hz pacing stimulus was interrupted at the end of these protocols to measure SMEs.
(§2) Left atria (n=6 per group) were paced at 3 Hz, titrated with 0 to 300 nM (−)BayK 8644 ([…]-1,4-Dihydro-2,6-dimethyl-5-nitro-4-[2-(trifluormethyl)phenyl]-3-pyridinecarboxylic acid methyl ester; Franckowiak et al. 1985) or FPL-64176 ((2,5-Dimethyl-4-[2-(phenylmethyl)benzoyl]-111-pyrrole-3-carboxylic acid methyl ester; Zheng et al., 1991) and their mechanical function and rates of SMA were recorded after a 5 min exposure to any concentration of slow calcium channel activator.
(§3) To test whether ryanodine receptor calcium leak produces SMA, left atria (n=6 per group) were paced at 0.1 Hz, treated with 0 or 300 nM BayK 8644 for 5 min, and then exposed to 600 nM ryanodine (Sutko et al., 1997). Atrial mechanical function and rates of SMA were recorded 20 min after exposure to ryanodine.
(§4) Left atria (n=7) were paced at 3 Hz, treated with 120 μM ouabain (Illanes and Marshall, 1964), and any change in mechanical function was recorded at a new steady state, ˜10 min later. These atria were exposed to 20 μM 2-APB and their mechanical function and rates of SMA were recorded 10 min later.
To test whether zatebradine affects left atrial force of contraction, two groups of left atria (n=9 per group) were paced at 3 Hz and treated with 300 nM BayK 8644. Five minutes later one group was incubated with six increasing concentrations of zatebradine (10-100 μM) for 3-5 min at each concentration, and forces of contraction were recorded. A second group was treated with BayK 8644 but not zatebradine, and forces of contraction were recorded at corresponding times.

rat left atria [2] = experiment: Spontaneous tachycardic activity (STA) in isolated rat left atria exposed to 2-APB under increased calcium load
Protocol: Male Sprague-Dawley rats (325-400 g) were anesthetized with intra-peritoneal pentobarbital (0.1 g/kg). Their right and left atria were isolated, superfused at 30° C. in Krebs-Henseleit buffer, and nearly isometric forces of contraction were measured from these muscles (Wolkowicz et al., 2002). 2-APB was prepared as a 150 mM dimethyl sulfoxide stock.
as §1
Left atria (n=10 per group) were paced at 0.1 Hz and treated with (i) 20 μM 2-APB for 10 min, (ii) with 30 nM isoproterenol for 5 min followed by 20 μM 2-APB for 10 min, and (iii) with 3 μM forskolin for 5 min followed by 20 μM 2-APB for 10 min.
Left atrial contraction and relaxation times were recorded at these five times, the pacing stimulus was stopped and rates of SMA were recorded. To determine whether initial pacing rate affects left atrial response to 2-APB and isoproterenol, left atria (n=5-7 per group) were paced at 3 Hz and (i) remained untreated for 15 min, (ii) were treated with 20 μM 2-APB alone for 10 min, or (ii) were treated with 30 nM isoproterenol for 5 min followed by 20 μM 2-APB for 10 min. Atrial mechanical function was measured at these four times; the pacing stimulus then was stopped and rates of SMA were recorded.
as §2
Left atria (n=8 per group) were paced at 0.1 Hz, exposed to 300 nM BayK 8644 or FPL-64176 for 5 min followed by 20 μM 2-APB for 10 min. Atrial mechanical function was recorded at this time; the pacing stimulus then was stopped and rates of SMA were recorded.
as §3
Rates of SMA were measured 5 min later.
as §4
3 Hz-paced left atria (n=9 per group) were superfused (i) in Krebs-Henseleit alone or (ii) they were treated with 20 μM 2-APB for 10 min, (iii) with 300 nM BayK 8644 for 10 min and with 20 μM 2-APB for 10 min, or (iv) they were treated with 300 nM BayK 8644 and 20 μM 2-APB for 10 min, then with 70 μM zatebradine (3-[3-[[2-(3,4-Dimethoxyphenyl)ethyl]methylamino] propyl]-1,3,4,5-tetrahydro-7,8,-dimethoxy-2H-3-benzazepin-2-one hydrochloride) for 10 min (Baruscotti et al., 2005). Pacing was interrupted at these times and rates of SMA were recorded.

[3] = no 2-APB, 30 nM isoproterenol, 3 μM forskolin, 300 nM BayK 8644 or FPL-64176, 120 μM ouabain, 600 nM ryanodine
[4] = 20 μM 2-APB plus 30 nM isoproterenol, 3 μM forskolin, 300 nM BayK 8644, 300 nM FPL-64176 or 120 μM ouabain, absence of pacing, 30° C.

## ryanodine
Rat left atria [1]
  left atrial force of contraction with agent alone: Time-dependent decreases in force of contraction
Rat left atria [2]; BayK 8644 and 2-APB, then 600 nM ryanodine
  STA after depletion of ryanodine-sensitive calcium stores: persists; also recorded: does not terminate STA

## CC(C)NCC(O)c1ccc(O)c(O)c1 (centres unmarked) [isoproterenol]
Rat left atria [1]; [3]
  left atrial force of contraction with agent alone: increase left atrial force of contraction
Rat left atria [2]; [4]
  rate of STA (SMA frequency) in presence of 2-APB and calcium loading agent: ~230 contractions/min and 239±11 contractions/min and 225±3.6 contractions/min

## NCCOB(c1ccccc1)c1ccccc1 [2-APB, 2-aminoethoxydiphenyl borate]
Rat left atria [1]
  maximum force of atrial contraction: also decreased
  maximum force of left atrial contraction: significantly decreased
Rat left atria [2]
  rate of STA post-washing: 0.7±0.4 contractions/min
  rate of STA pre-washing: 224±12 contractions/min

## COC(=O)c1c(C)[nH]c(C)c1C(=O)c1ccccc1Cc1ccccc1 [FPL-64176, 2,5-Dimethyl-4-[2-(phenylmethyl)benzoyl]-111-pyrrole-3-carboxylic acid methyl ester]
Rat left atria [1]
  left atrial force of contraction with agent alone: increase left atrial force of contraction
Rat left atria [2]
  rate of STA (SMA frequency) in presence of 2-APB and calcium loading agent: 222±9 contractions/min

## C[C@@H]1O[C@@H](O[C@H]2C[C@@H](O)[C@]3(CO)[C@H]4[C@H](O)C[C@]5(C)[C@@H](C6=CC(=O)OC6)CC[C@]5(O)[C@@H]4CC[C@]3(O)C2)[C@H](O)[C@H](O)[C@H]1O [ouabain]
Rat left atria [1]; [3]
  left atrial force of contraction with agent alone: doubles their force of contraction
Rat left atria [2]; [4]
  rate of STA (SMA frequency) in presence of 2-APB and calcium loading agent: 202±5.6 contractions/min

## COC(=O)C1=C(C)NC(C)=C([N+](=O)[O-])[C@H]1c1ccccc1C(F)(F)F [BayK 8644, (45)-1,4-Dihydro-2,6-dimethyl-5-nitro-4-[2-(trifluormethyl)phenyl]-3-pyridinecarboxylic acid methyl ester]
Rat left atria [1]
  left atrial force of contraction with agent alone: increase left atrial force of contraction
Rat left atria [2]
  rate of STA (SMA frequency) in presence of 2-APB and calcium loading agent: 227±10 contractions/min
